According to patent EP1433789A1, “Pyrrolopyrazines and their use as selective apoptosis inducers” (Aponetics AG, priority 2002, dated 2004):

Assays:
Jurkat [1] = assay: PI staining for cell cycle distribution; assay type: cell-based, human; parameters: key: 0 indicates no occurrence at all; 1 for weak; 2 for strong occurrence; conditions: Jurkat 3 uM, 24 h
Experimental: (§1) 1 - 2*10^5 cells are seeded into 24 well tissue culture plates and incubated for 24 h prior to compound addition. Compounds are added for 24 h in a final concentration of 3 µM or 10 µM. Adherent cells are harvested by trypsinization. The cell suspensions are fixed by adding 2 parts ice cold ethanol 100% while vortexing. Then the samples are stored for > 2 h at-20°C. Subsequently the cells are washed with PBS once and resuspended in 250 µl PBS containing 50 µg/ml PI (Calbiochem # 537059), then the samples are incubated at 37°C for 30 minutes and subsequently analyzed on a FACSCalibur™ monitoring linear PI fluorescence activity on FL2.. The readout allows the detection of a possible direct or indirect influence of the tested compounds on the cell cycle. The following events can occur: a) Generation of a subG1 peak indicative for DNA fragmentation, b) increase of the cell population arrested in G2M phase. Both events are scored by 1 for weak and 2 for strong occurrence. 0 indicates no occurrence at all. […]

HeLa [2] = assay: PI staining for cell cycle distribution; assay type: cell-based, human; parameters: key: 0 indicates no occurrence at all; 1 for weak; 2 for strong occurrence; conditions: HeLa 10 µM, 24 h
Experimental: as §1

Jurkat [3] = assay: AnnexinV/7-AAD staining; assay type: cell-based, human; conditions: 10 µM, 24 h treatment
Summary of the method: (§2)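 Cells treated with compound at 10 µM final for 24 h, then stained with AnnexinV-GST/anti-GST Alexa 488 and 7-AAD and analysed by flow cytometry. Percent positive cells scored as 0 (<10%), 1 (10–50%) or 2 (>50%).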

HeLa [4] = assay: AnnexinV/7-AAD staining; assay type: cell-based, human; conditions: 10 µM, 24 h treatment
Summary of the method: as §2

Ramos = assay: AnnexinV/7-AAD staining; assay type: cell-based, human; conditions: 10 µM, 24 h treatment
Summary of the method: as §2

K562 [5] = assay: MTS proliferation assay; assay type: cell-based; conditions: Homo sapiens, K562, 72 h incubation
Experimental: (§3) The assay is performed in 96 well tissue culture plates. The cells (range : 1.5*10^3-10^4) are seeded out in 80 µl complete medium 24 h prior to compound treatment. The test compounds are added in 20 µl complete medium containing max 5% DMSO. The final compound concentrations in the assays are 10 µM, 3 µM,1 µM and 0.3 µM, respectively. The assay plates are incubated for 72 h at culture conditions. The MTS reagent is prepared according to the manufacturer's protocol (Promega G1111 ). 20 µl MTS reagent are added to each well, the assay plates are quickly spun and incubated for another 3 h at culture conditions. Subsequently, the plates are shortly shaked and absorption measured with a microplate-reader at 492 nm.

A20 [6] = assay: MTS proliferation assay; assay type: cell-based; conditions: Mus musculus, A20, 72 h incubation
Experimental: as §3

HeLa [7] = assay: MTS proliferation assay; assay type: cell-based; conditions: Homo sapiens, 72 h incubation
Experimental: as §3

Jurkat [8] = assay: Hoechst 33342 nuclear staining (Table 3); assay type: cell-based, human; parameters: key: 0 relating to no activity; 1 relating to weak activity comprising less than 50% of the cells; score 2 relating to strong activity comprising more than 50% of the cells
Summary of the method: (§4)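 Adherent cells (3-5×10^3, pre-spread 24 h) or suspension cells (8-10×10^3) treated with compounds at 10, 3, 1 and 0.3 µM for 24 or 48 h, then Hoechst 33342 stained for 30 min. Apoptotic nuclear morphology scored by fluorescence microscopy: 0 none, 1 weak (<50% cells), 2 strong (>50% cells).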

KB = assay: Hoechst 33342 nuclear staining (Table 3); assay type: cell-based, human; parameters: key: 0 relating to no activity; 1 relating to weak activity comprising less than 50% of the cells; score 2 relating to strong activity comprising more than 50% of the cells
Summary of the method: as §4

K562 [9] = assay: Hoechst 33342 nuclear staining (Table 3); assay type: cell-based, human; parameters: key: 0 relating to no activity; 1 relating to weak activity comprising less than 50% of the cells; score 2 relating to strong activity comprising more than 50% of the cells
Summary of the method: as §4

HeLa [10] = assay: Hoechst 33342 nuclear staining (Table 3); assay type: cell-based, human; parameters: key: 0 relating to no activity; 1 relating to weak activity comprising less than 50% of the cells; score 2 relating to strong activity comprising more than 50% of the cells
Summary of the method: as §4

A20 [11] = assay: AnnexinV/7-AAD staining; assay type: cell-based, mouse; conditions: A20, 10 µM, 24 h treatment
Summary of the method: as §2

For `COc1cc2c(cc1OC)-c1cc3nc4ccccc4nc3n1C(C)C2` (stereo not drawn) [compound 8], the “G2M (increase of the cell population arrested in G2M phase)” value (Jurkat [1]) was 0, the “subG1 (generation of a subG1 peak indicative for DNA fragmentation)” value (Jurkat [1]) was 1 and the “G2M (increase of the cell population arrested in G2M phase)” value (HeLa [2]) was 0. The “subG1 (generation of a subG1 peak indicative for DNA fragmentation)” value (HeLa [2]) was 1, the “percentage of positively stained cells (AnnexinV/7-AAD staining)” value (shortened to “percentage of positively stained cells”) (Jurkat [3]) was 0 (Score 0 relates to less than 10%) and the “percentage of positively stained cells” value (HeLa [4]) was 1 (score 1 relates to more than 10% but less than 50%). The “percentage of positively stained cells” value (Ramos) was 0 (Score 0 relates to less than 10%), the IC50 (K562 [5]) was over 10 µM and the IC50 (A20 [6]) was 1 to 10 µM. The IC50 (HeLa [7]) was 1 to 10 µM, the “Hoechst 33342 nuclear staining” value (Jurkat [8]; 24h, conc 0.3 (µM)) was 1 (1 relating to weak activity comprising less than 50% of the cells) and the “Hoechst 33342 nuclear staining” value (Jurkat [8]; 24h, conc 1 (µM)) was 1 (1 relating to weak activity comprising less than 50% of the cells). For the same compound, the “Hoechst 33342 nuclear staining” value (Jurkat [8]; 24h, conc 3 (µM)) was 2 (score 2 relating to strong activity comprising more than 50% of the cells), the “Hoechst 33342 nuclear staining” value (Jurkat [8]; 24h, conc 10 (µM)) was 2 (score 2 relating to strong activity comprising more than 50% of the cells) and the “Hoechst 33342 nuclear staining” value (Jurkat [8]; 48h, conc 0.3 (µM)) was 1 (1 relating to weak activity comprising less than 50% of the cells). For the same compound, the “Hoechst 33342 nuclear staining” value (Jurkat [8]; 48h, conc 1 (µM)) was 2 (score 2 relating to strong activity comprising more than 50% of the cells), the “Hoechst 33342 nuclear staining” value (Jurkat [8]; 48h, conc 3 (µM)) was 2 (score 2 relating to strong activity comprising more than 50% of the cells) and the “Hoechst 33342 nuclear staining” value (Jurkat [8]; 48h, conc 10 (µM)) was 2 (score 2 relating to strong activity comprising more than 50% of the cells). For the same compound, the “Hoechst 33342 nuclear staining” value (KB; 24h, conc 0.3 (µM)) was 0, the “Hoechst 33342 nuclear staining” value (KB; 24h, conc 1 (µM)) was 0 and the “Hoechst 33342 nuclear staining” value (KB; 24h, conc 3 (µM)) was 0. For the same compound, the “Hoechst 33342 nuclear staining” value (KB; 24h, conc 10 (µM)) was 0, the “Hoechst 33342 nuclear staining” value (KB; 48h, conc 0.3 (µM)) was 0 and the “Hoechst 33342 nuclear staining” value (KB; 48h, conc 1 (µM)) was 0. The “Hoechst 33342 nuclear staining” value (KB; 48h, conc 3 (µM)) was 0, the “Hoechst 33342 nuclear staining” value (KB; 48h, conc 10 (µM)) was 0 and the “Hoechst 33342 nuclear staining” value (K562 [9]; K562, 24h, conc 0.3 (µM)) was 0. The “Hoechst 33342 nuclear staining” value (K562 [9]; K562, 24h, conc 1 (µM)) was 0, the “Hoechst 33342 nuclear staining” value (K562 [9]; K562, 24h, conc 3 (µM)) was 0 and the “Hoechst 33342 nuclear staining” value (K562 [9]; K562, 48h, conc 0.3 (µM)) was 0. For the same compound, the “Hoechst 33342 nuclear staining” value (K562 [9]; K562, 48h, conc 1 (µM)) was 2 (score 2 relating to strong activity comprising more than 50% of the cells), the “Hoechst 33342 nuclear staining” value (K562 [9]; K562, 48h, conc 3 (µM)) was 2 (score 2 relating to strong activity comprising more than 50% of the cells) and the “Hoechst 33342 nuclear staining” value (K562 [9]; K562, 48h, conc 10 (µM)) was 2 (score 2 relating to strong activity comprising more than 50% of the cells). The “Hoechst 33342 nuclear staining” value (HeLa [10]; 24h, conc 0.3 (µM)) was 0, the “Hoechst 33342 nuclear staining” value (HeLa [10]; 24h, conc 1 (µM)) was 0 and the “Hoechst 33342 nuclear staining” value (HeLa [10]; 24h, conc 3 (µM)) was 0. For the same compound, the “Hoechst 33342 nuclear staining” value (HeLa [10]; 24h, conc 10 (µM)) was 0, the “Hoechst 33342 nuclear staining” value (HeLa [10]; 48h, conc 0.3 (µM)) was 0 and the “Hoechst 33342 nuclear staining” value (HeLa [10]; 48h, conc 1 (µM)) was 0. The “Hoechst 33342 nuclear staining” value (HeLa [10]; 48h, conc 3 (µM)) was 1 (1 relating to weak activity comprising less than 50% of the cells), the “Hoechst 33342 nuclear staining” value (HeLa [10]; 48h, conc 10 (µM)) was 2 (score 2 relating to strong activity comprising more than 50% of the cells) and the “percentage of positively stained cells” value (A20 [11]) was 0 (Score 0 relates to less than 10%).
